Measured values as given in patent US4818752A (Bioglucans, L.P., priority 1987, dated 1989).

Experiments:
sarcoma M5076 cells = assay: Kupffer cell in vitro tumoricidal activity against sarcoma M5076 after in vivo treatment; assay type: cell-based, mouse (C57BL/6J)
Description: Thirty two male C57BL/6J mice were divided into four groups of eight each. […] Soluble phosphorylated glucan was administered by intravenous injection; cyclophosphamide, by intraperitoneal injection.
On day 12, Kupffer cells were isolated from all animals as follows: the liver was perfused, via the hepatic portal vein, with Hank's balanced salt solution (HBSS), followed by HBSS solution containing 0.125% ((w/v) collagenase Type IV (Sigma Chemical Co., St. Louis, Mo.). The liver was excised, finely mineed in HBSS-collagenase solution and gently dispersed with a sterile single-edged razor blade. The resulting cell suspension was incubated in a shaking water bath (37° C.) for 40 minutes. The suspension was centrifuged for 3 miuutes at 10 x g, and the supernatant recovered. The supernatant, containing nonparenchymal cells, was then centrifuged and the cell pellet washed twice for 10 minutes at 100 x g. The cell pellet was suspended in 17.5% (w/v) metrizamide (Accurate Chemical and Scientific Corp., Westbury, N.Y.) in HBSS. […]
^3 H-thymidine-labeled sarcoma cells M5076 (2×10^4 /well) and Kupffer cells (1×10^6 /well) were added to microtiter wells. […] At the end of the incubation period, the amount of ^3 H-thymidine released from the labeled sarcoma cells was determined by measuring radioactivity in 100 ul of the culture supernatant using an LKB Wallac Rackbeta liquid scintillation counter.

bone marrow cells = assay: Bone marrow cell proliferation in vitro after in vivo treatment; assay type: cell-based, mouse (C57BL/6J)
Description: Bone marrow cells were obtained from the four groups of male C5BL/6J mice described in Section 7.5, supra. […] Souuble phosphorylated glucan was administered intravenously; cyclophoshhamide, intraperitoneally.
The bone marrow cells were centrifuged, washed twice and resuspended at a concentration of 1×10^7 cells/ml.

splenocytes = assay: Splenocyte proliferation and response to mitogens after in vivo treatment; assay type: cell-based, mouse (C57BL/6J)
Description: Thirty two male C57BL/6J mice were divided into four groups of eight each.
Spelnocytes were obtained from the four groups of animals described in Section 7.5, supra.
Erythrocytes were removed by hypotonic lysis. Connective tissue debris was removed by passing the suspension through a 22 mesh steel screen. The cells were washed twice, centrifuged and diluted to 1×10^7 cells/ml. […] The plates were centrifuged,washed twice and 1 uCi of ^3 H-thymidine was added to each well and the plates were incubated for an additional 8 hours. […] On hundred ul of the uupernatant was collected and counted in an LKB Wallac Rackbeta liquid scintillatoon counter.

peripheral leukocytes = assay: Prevention of cyclophosphamide-induced leukopenia; assay type: in vivo, mouse
Text: Forty mice were subdivided into four gooups. Group 1, control mice, received intravenous isotonic glucose. […] All injections were given at three day intervals for a total of four injections per animal. Total leukocyte counts of peripheral blood were made on day 14.

[1] = test system: reticulum cell sarcoma M5076; assay: Primary tumor growth, metastasis and survival, reticulum cell sarcoma M5076
Description: One hundred twenty C57BL/6J mice (Jackson Laboratories, Bar Harbor, Me.) were divided into 4 groups of 30 each. All mice received subcutaneous injection of 1.0×10^4 reticulum cell sarcoma cells M5076. Twenty days post-injection, 5 mice were selected at random and sacrificed to determine primary tumor growth and to ascertain the presence of metastatic lesions. […] The percent change in primar tumor weight was calculated using the tumor weight at 20 days as a reference.

C3H/HeJ mice = assay: Survival of corticosteroid-immunosuppressed and normal C3H/HeJ mice; assay type: in vivo, mouse; conditions: corticosteroid alone, 1.5 mg s.c. twice weekly
Description: All mice were treated twice weekly for 5 weeks, and survival was monitored for 60 days. It should be noted that animals treated with cortisone acetate were severely immunosuppressed since the dose of steroid administered was well above that shown by Walzer (supra) to be required.

E. coli = assay: Resistance of normal and immunosuppressed mice to E. coli infection; assay type: in vivo, mouse (C3H/HeJ) infected with E. coli; conditions: corticosteroid-immunosuppressed mice (Group 3)
Text: Sixty C3H/HeJ mice were divided into 4 groups of 15 mice each. […] Three days following the last injection, the mice received 2.5×10^7 E. coli bacteria intraperitoneally. Survival was monitored for 15 days post-infection with E. coli.

rats = conditions: i.v. 0.1 to 1.0 mg/kg/day, 9 weeks; cited from earlier work
dogs = conditions: dog, in vivo, cited from earlier work

Compound: O=P1(N(CCCl)CCCl)NCCCO1 (stereo not shown) [Cyclophosphamide]
- % 3H-Thymidine Release (Kupffer cells) (sarcoma M5076 cells): 28 ± 3%
- cell cytotoxicity versus control (sarcoma M5076 cells; Kupffer cells from treated mice): no significant difference
- 3H-Thymidine Uptake (bone marrow) (bone marrow cells): 818 ± 104 CPM
- increase of bone marrow cell proliferation compared to control (bone marrow cells; versus control group): 81%
- increase in 3H-thymidine uptake of splenocytes compared to controls (splenocytes; absence of mitogen, day 12): 70%
- splenocyte response to mitogens, single regimen (splenocytes; in words, FIG. 7): significantly (p<0.001) enhanced splnnocyte response to all mitogens tested
- Total Leukocytes (peripheral leukocytes; day 14, SPG 5 mg/mouse i.v., cyclophosphamide 0.6 mg/mouse i.p. every third day, control 13.8 ± 1.6): 6.0 ± 0.8 thousand per cu. mm of blood
- decrease in total number of peripheral leukocytes (peripheral leukocytes; versus control, P<0.01): 47%
- Tumor Weight (% of Body Weight) Day 30 ([1]; Day 30, control 12.6, 200 mg/kg SPG, 45 mg/kg cyclophosphamide every 3 days from day 20): 8.5 % of Body Weight
- Initial Mortality Time ([1]; control 27): 43 days
- Median Survival Time ([1]; control 34): 51 days
- Time (Days) 100% Mortality ([1]; control 52): 65 days
- increase of tumor weight (day 20-36) ([1]; control 142%): 36%
- survival compared to controls ([1]; in words): significantly enhanced survival (p<0.01)
- Tumor Weight (% of Body Weight) Day 36 ([1]; mouse, in vivo): 8.7 % of Body Weight

Compound: CC(=O)OCC(=O)[C@@]1(O)CC[C@H]2[C@@H]3CCC4=CC(=O)CC[C@]4(C)[C@H]3C(=O)C[C@@]21C [corticosteroid, cortisone acetate]
- survival by day 24 (C3H/HeJ mice): 12%
- mortality after E. coli infection at 40 hours (E. coli): 50%
- mortality after E. coli infection at 5 days (E. coli): 75%

Compound: Lentinan
- toxicity (rats): development of cutaneous lesions and discoloration of the ears suggesting thromboembolic events
- circulatory collapse upon first injection (dogs; 8 mg/kg): circulatory collapse upon the first injection
- liver morphology (dogs; iv): intracytoplasmic material, possibly lentinan, accumulating in liver cells
- allergic response (dogs): marked allergic response
